Here are results for 18 molecules from patent publication US9839642B2, “Beta-tetrazolyl-propionic acids as metallo-beta-lactamase inhibitors” (priority 2014, dated 2017).

Assay [1] relates to Klebsiella pneumoniae expressing VIM-1 (IHMA599644). The assay can be described thus: Antibiotic potentiation activity: synergistic concentration (MITC95) with imipenem, growth by OD600. It counts as cell-based. The settings on record: 95% inhibition of bacterial growth, strain IHMA599644. The essentials: (§1)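 MITC95 = lowest inhibitor concentration giving 95% growth inhibition, read by absorbance after 22–24 h at 35° C. Compound range 200 μM to 0.195 μM, imipenem fixed at 1 or 4 μg/ml, bacteria in 1.1×CAMHB from saline suspension diluted 1:100.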

The test system of assay [2] is Serratia marcescens expressing IMP-1 (CL5741). The description is as above. It counts as cell-based. The settings on record: 95% inhibition of bacterial growth, strain CL5741. The method in brief:
as §1

Assay [3] deals with Escherichia coli expressing NDM-1 (CLB30016). The description is as above. The settings on record: 95% inhibition of bacterial growth, strain CLB30016. The assay is classed as cell-based. The essentials: as §1
The target in another assay is IMP-1 (Serratia marcescens, UniProt P52699). The assay can be described thus: Enzyme activity: determination of IC50, fluorescence assay with CCF2-FA substrate. As to conditions: enzyme 2 pM, CCF2-FA 1.25 μM, 2 hours at 25° C.; read-out: IMP1 IC50. The assay is classed as biochemical. The method in brief:
(§2)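 100 mM KH2PO4 pH 7 + 0.005% Tween-20 + 10 μM ZnSO4; CCF2-FA 1.25 μM; NDM-1 1 pM, IMP-1 2 pM, VIM-1 30 pM; cpd 20–0.00063 μM final, DMSO 1:50. 2 h, 25° C. Ex 405/em 460 nm; IC50, 4-param fit.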

The target of another assay is NDM-1 (Klebsiella pneumoniae, UniProt C7C422). The assay is described as above. The assay is classed as biochemical. As to conditions: enzyme 1 pM, CCF2-FA 1.25 μM, 2 hours at 25° C.; read-out: NDM1 IC50. The method in brief: as §2
The next assay addresses VIM-1 (Pseudomonas aeruginosa, UniProt A0A0F7KYQ8). The description is as above. It counts as biochemical. As to conditions: enzyme 30 pM, CCF2-FA 1.25 μM, 2 hours at 25° C.; read-out: VIM1 IC50. The method in brief:
as §2

Sequence of NDM-1 (C7C422 29-270, looked up, species assumed): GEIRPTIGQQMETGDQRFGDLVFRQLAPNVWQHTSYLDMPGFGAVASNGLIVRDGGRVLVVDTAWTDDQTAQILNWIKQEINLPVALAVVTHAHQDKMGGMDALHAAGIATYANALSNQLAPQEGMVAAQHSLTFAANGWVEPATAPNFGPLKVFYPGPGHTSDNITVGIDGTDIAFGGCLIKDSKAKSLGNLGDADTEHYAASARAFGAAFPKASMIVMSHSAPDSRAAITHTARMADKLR
Sequence of IMP-1 (P52699 19-246, looked up, species assumed): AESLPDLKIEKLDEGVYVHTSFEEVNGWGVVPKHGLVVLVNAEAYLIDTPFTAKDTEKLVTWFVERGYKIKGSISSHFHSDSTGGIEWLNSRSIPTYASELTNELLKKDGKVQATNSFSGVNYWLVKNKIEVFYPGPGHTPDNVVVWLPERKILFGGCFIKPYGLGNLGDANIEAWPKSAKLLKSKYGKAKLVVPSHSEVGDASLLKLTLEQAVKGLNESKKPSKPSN

Take `CCC[C@H](C(=O)O)[C@H](Cc1cccnc1Cl)c1nnn[nH]1` [Example 87, (2S)-2-[(1S)-2-(2-chloropyridin-3-yl)-1-(1H-tetrazol-5-yl)ethyl]pentanoic acid]: the “VIM1 KP599644 MITC95” value in assay [1] was found to be 25 µM. The “IMP1 SM5741 MITC95” value in assay [2] is more than 200 µM. The “NDM1 EC30016 MITC95” value in assay [3] came out at 12.5 µM. For the same molecule, the 50% inhibitory concentration (IC50) at IMP-1 is 6.6 µM; on NDM-1 it was 300 nM; on VIM-1 it was 2.3 nM.

`CCC[C@H](C(=O)O)[C@H](Cc1ccncc1)c1nnn[nH]1` [Example 88, (2S)-2-[(1S)-2-pyridin-4-yl-1-(1H-tetrazol-5-yl)ethyl]pentanoic acid]: in assay [1], the “VIM1 KP599644 MITC95” value worked out at 6.2 µM. In assay [2], the “IMP1 SM5741 MITC95” value was 37.5 µM. Moreover, the “NDM1 EC30016 MITC95” value in assay [3] came to 0.78 µM. The IC50 at IMP-1 worked out at 2 µM; at NDM-1 it was 180 nM; on VIM-1 it was 5.6 nM.

Take `CC(C)[C@H](C(=O)O)[C@H](CC1CCNCC1)c1nnn[nH]1` [Example 89, (2S,3S)-2-isopropyl-4-(piperidin-4-yl)-3-(1H-tetrazol-5-yl)butanoic acid]: the “VIM1 KP599644 MITC95” value in assay [1] is 37.5 µM. Further, in assay [2], the “IMP1 SM5741 MITC95” value is more than 200 µM. Moreover, in assay [3], the “NDM1 EC30016 MITC95” value stood at 18.8 µM. For the same molecule, the values for the IC50 on IMP-1, at NDM-1 and at VIM-1 were more than 20 µM, 18000 nM and 2100 nM, respectively.

In the case of `CC(=O)N1CCC(C[C@H](c2nnn[nH]2)[C@@H](C(=O)O)C(C)C)CC1` [Example 90, (2S,3S)-4-(1-acetylpiperidin-4-yl)-2-isopropyl-3-(1H-tetrazol-5-yl)butanoic acid], the “VIM1 KP599644 MITC95” value in assay [1] was 200 µM. The “IMP1 SM5741 MITC95” value in assay [2] is more than 200 µM. Also, the “NDM1 EC30016 MITC95” value in assay [3] turned out to be 62 µM. Moreover, the half-inhibitory concentration (IC50) was 14 µM on IMP-1, 200 nM on NDM-1 and 310 nM on VIM-1.

`CC(C)[C@H](C(=O)O)[C@H](Cc1ccc(Br)nc1)c1nnn[nH]1` [Example 91, (2S,3S)-4-(6-bromopyridin-3-yl)-2-isopropyl-3-(1H-tetrazol-5-yl)butanoic acid]: in assay [1], the “VIM1 KP599644 MITC95” value came out at 12.5 µM. The “IMP1 SM5741 MITC95” value in assay [2] worked out at 50 µM. Besides, the “NDM1 EC30016 MITC95” value in assay [3] turned out to be 7.8 µM. Further, the values for the IC50 on IMP-1, on NDM-1 and on VIM-1 were 2.2 µM, 32 nM and 7.9 nM, respectively.

As for `CC(C)[C@H](C(=O)O)[C@H](Cc1cccc(Br)n1)c1nnn[nH]1` [Example 92], the “VIM1 KP599644 MITC95” value in assay [1] was 25 µM. In addition, the “IMP1 SM5741 MITC95” value in assay [2] was 100 µM. The “NDM1 EC30016 MITC95” value in assay [3] worked out at 9.4 µM. Besides, the IC50 at IMP-1 came out at 5.5 µM; at NDM-1, 110 nM; at VIM-1, 28 nM.

As to `CCC[C@H](C(=O)O)[C@H](Cc1ccc(C(N)=O)cn1)c1nnn[nH]1` [Example 93, (S)-2-((S)-2-(5-carbamoylpyridin-2-yl)-1-(1H-tetrazol-5-yl)ethyl) pentanoic acid], the “VIM1 KP599644 MITC95” value in assay [1] amounted to 25 µM. Besides, the “IMP1 SM5741 MITC95” value in assay [2] was more than 200 µM. In assay [3], the “NDM1 EC30016 MITC95” value stood at 6.2 µM. Also, the IC50 is more than 20 µM on IMP-1, 580 nM on NDM-1 and 90 nM at VIM-1.

Take `CCC[C@H](C(=O)O)[C@H](Cc1cccc(C(=O)O)n1)c1nnn[nH]1` [Example 94, 6-((2S,3)-3-carboxy-2-(1H-tetrazol-5-yl)hexyl)picolinic acid]: the “VIM1 KP599644 MITC95” value in assay [1] was 200 µM. For the same molecule, the “IMP1 SM5741 MITC95” value in assay [2] is more than 200 µM. Besides, the “NDM1 EC30016 MITC95” value in assay [3] amounted to 50 µM. In addition, the figures for the IC50 on IMP-1, on NDM-1 and at VIM-1 were more than 20 µM, 4500 nM and 2900 nM, respectively.

On to `CCC[C@H](C(=O)O)[C@H](Cc1ccc(-c2ccc(CN)cc2)nc1)c1nnn[nH]1` [Example 96, (4-(5-((2S,3S)-3-carboxy-2-(1H-tetrazol-5-yl)hexyl)pyridin-2-yl)phenyl)methanaminium], for which, in assay [1], the “VIM1 KP599644 MITC95” value was found to be 18.8 µM. In addition, the “IMP1 SM5741 MITC95” value in assay [2] came to 37 µM. For the same molecule, the “NDM1 EC30016 MITC95” value in assay [3] came to 6.2 µM. The figures for the IC50 on IMP-1, on NDM-1 and at VIM-1 were 3.1 µM, 280 nM and 9 nM, respectively.

On to `CCC[C@H](C(=O)O)[C@H](Cc1ccc(-c2ccc(-c3nn[nH]n3)cc2)nc1)c1nn[nH]n1` [Example 97, (S)-2-((S)-2-(6-(4-(2H-tetrazol-5-yl)phenyl)pyridin-3-yl)-1-(1H-tetrazol-5-yl)ethyl)pentanoic acid], for which the “VIM1 KP599644 MITC95” value in assay [1] was found to be 200 µM. The “IMP1 SM5741 MITC95” value in assay [2] came to 31 µM. For the same molecule, in assay [3], the “NDM1 EC30016 MITC95” value was found to be 100 µM. For the same molecule, the IC50 was 0.38 µM on IMP-1, 1.2 nM on NDM-1 and 5.9 nM on VIM-1.

Turning to `CC(C)C[C@H](C(=O)O)[C@H](Cc1ccc(-c2ccc3c(c2)CNC3)cn1)c1nnn[nH]1` [Example 99, (S)-2-((S)-2-(5-(isoindolin-5-yl)pyridin-2-yl)-1-(1H-tetrazol-5-yl)ethyl)-4-methylpentanoic acid], the “VIM1 KP599644 MITC95” value in assay [1] was 100 µM. Also, the “IMP1 SM5741 MITC95” value in assay [2] was 75 µM. For the same molecule, in assay [3], the “NDM1 EC30016 MITC95” value was 31 µM. In addition, the results for the IC50 on IMP-1, at NDM-1 and at VIM-1 were 3.9 µM, 600 nM and 350 nM, respectively.

In the case of `CC(C)C[C@H](C(=O)O)[C@H](Cc1ccc(C2CCNC2)nc1)c1nnn[nH]1` (stereo partly drawn) [Example 100, (2S)-4-methyl-2-((1S)-2-(6-(pyrrolidin-3-yl)pyridin-3-yl)-1-(1H-tetrazol-5-yl)ethyl)pentanoic acid], the “VIM1 KP599644 MITC95” value in assay [1] was 12.5 µM. The “IMP1 SM5741 MITC95” value in assay [2] is 25 µM. Besides, the “NDM1 EC30016 MITC95” value in assay [3] was 6.2 µM. In addition, the IC50 on IMP-1 is 2.9 µM; at NDM-1, 280 nM; at VIM-1, 4.9 nM.

As to `CC(C)C[C@H](C(=O)O)[C@H](Cc1ccc(C2CCNCC2)cn1)c1nnn[nH]1` [Example 101, (S)-4-methyl-2-((S)-2-(5-(piperidin-4-yl)pyridin-2-yl)-1-(1H-tetrazol-5-yl)ethyl)pentanoic acid], in assay [1], the “VIM1 KP599644 MITC95” value was 18.8 µM. Moreover, in assay [2], the “IMP1 SM5741 MITC95” value amounted to 18.8 µM. Besides, the “NDM1 EC30016 MITC95” value in assay [3] is 1.6 µM. For the same molecule, the IC50 at IMP-1 stood at 2 µM; on NDM-1, 130 nM; on VIM-1, 13 nM.

Regarding `CC(C)C[C@H](C(=O)O)[C@H](Cc1ccc(C2CCNCC2)cc1)c1nnn[nH]1` [Example 102, (S)-4-methyl-2-((S)-2-(4-(piperidin-4-yl)phenyl)-1-(1H-tetrazol-5-yl)ethyl)pentanoic acid], in assay [1], the “VIM1 KP599644 MITC95” value stood at 37 µM. Moreover, the “IMP1 SM5741 MITC95” value in assay [2] turned out to be 2.3 µM. For the same molecule, the “NDM1 EC30016 MITC95” value in assay [3] turned out to be 12.5 µM. In addition, the values for the IC50 on IMP-1, on NDM-1 and on VIM-1 were 0.072 µM, 40 nM and 5.3 nM, respectively.

For the molecule `CC(C)C[C@H](C(=O)O)[C@H](Cc1ccc(C2CCNCC2)nc1)c1nnn[nH]1` [Example 103, (S)-4-methyl-2-((S)-2-(6-(piperidin-4-yl)pyridin-3-yl)-1-(1H-tetrazol-5-yl)ethyl)pentanoic acid], the “VIM1 KP599644 MITC95” value in assay [1] turned out to be 18.8 µM. The “IMP1 SM5741 MITC95” value in assay [2] amounted to 18.8 µM. For the same molecule, the “NDM1 EC30016 MITC95” value in assay [3] amounted to 6.2 µM. For the same molecule, the IC50 turned out to be 0.96 µM at IMP-1, 150 nM on NDM-1 and 3.4 nM at VIM-1.

Take `CC(C)[C@H](C(=O)O)[C@H](Cc1ccc(C2CCNCC2)nc1)c1nnn[nH]1` [Example 104, (2S,3S)-2-isopropyl-4-(6-(piperidin-4-yl)pyridin-3-yl)-3-(1H-tetrazol-5-yl)butanoic acid]: in assay [1], the “VIM1 KP599644 MITC95” value was determined as 18.8 µM. For the same molecule, the “IMP1 SM5741 MITC95” value in assay [2] came to 37 µM. Moreover, the “NDM1 EC30016 MITC95” value in assay [3] was found to be 3.1 µM. For the same molecule, the results for the IC50 on IMP-1, at NDM-1 and on VIM-1 were 7 µM, 180 nM and 14 nM, respectively.

As to `CC(C)[C@H](C(=O)O)[C@H](Cc1ccc(C2CCNC2)nc1)c1nnn[nH]1` (stereo partly drawn) [Example 105, (2S,3S)-2-isopropyl-4-(6-(pyrrolidin-3-yl)pyridin-3-yl)-3-(1H-tetrazol-5-yl)butanoic acid], the “VIM1 KP599644 MITC95” value in assay [1] is 12.5 µM. In addition, in assay [2], the “IMP1 SM5741 MITC95” value is 50 µM. Further, the “NDM1 EC30016 MITC95” value in assay [3] came out at 3.1 µM. Besides, the IC50 on IMP-1 worked out at 14 µM; on NDM-1, 170 nM; on VIM-1 it was 20 nM.

As to `O=C(O)[C@@H](C1CCOC1)[C@H](Cc1ccc(C2CCNC2)cc1)c1nnn[nH]1` (stereo partly drawn) [Example 107, (2R,3S)-4-(4-(pyrrolidin-3-yl)phenyl)-2-(tetrahydrofuran-3-yl)-3-(1H-tetrazol-5-yl)butanoic acid], the “VIM1 KP599644 MITC95” value in assay [1] was 12.5 µM. Moreover, the “IMP1 SM5741 MITC95” value in assay [2] came to 50 µM. Moreover, the “NDM1 EC30016 MITC95” value in assay [3] is 9.4 µM. For the same molecule, the figures for the IC50 on IMP-1, on NDM-1 and at VIM-1 were 5.9 µM, 380 nM and 30 nM, respectively.
